Patent US9399028B2, “Treatment of drug resistant cancer” (ROCKEFELLER UNIVERSITY (THE), priority 2012, dated 2016)
Where a name gives a salt, the structure may show the parent alone.

What was measured:
[1] = system: ApoE promoter fused to ME.1 or ME.2 in MeWo cells; test: ApoE promoter activity (luciferase) assay; format: cell-based, human; settings: 1 μM, 24 hours
Excerpt: The ApoE promoter, consisting of a sequence spanning 980 base pairs upstream and 93 base pairs downstream of the ApoE gene, was cloned into a pGL3-Basic vector (E1751, Promega Corporation, Madison, Wis.) upstream of the firefly luciferase gene using NheI and SacI restriction enzymes. Then, multi-enhancer elements 1 (ME.1) and 2 (ME.2) were cloned directly upstream of the ApoE promoter using MluI and […] restriction enzymes. To assess ApoE promoter- and ME.1/ME.2-driven transcriptional activation by LXR agonists, 5×10^4 MeWo cells were seeded into a 24-well plate. The following day, 100 ng of pGL3-ME.1/ME.2-ApoE promoter construct and 2 ng of pRL-CMV renilla luciferase construct (E2261, Promega) were co-transfected into cells in the presence of DMSO, GW3965, or T0901317 at 1 μM, each condition in quadruplicate. To assess transcriptional activation by LXRα or LXRβ, 5×10^4 MeWo cells expressing a control shRNA or shRNA targeting LXRα or LXRβ were seeded into a 24-well plate. […] After 24 hours, cells were lysed, and cell lysate was analyzed for firefly and renilla luciferase activity using the Dual Luciferase Assay System (E1960, Promega) and a Bio-Tek Synergy NEO Microplate Reader. Firefly luciferase signal was normalized to renilla luciferase signal and all data are expressed relative to the luciferase activity ratio measured in the DMSO-treated control cells.

[2] = system: human melanoma cells (MeWo, MeWo-LM2, A375-LM3, HT-144, SK-Mel-334.2); test: Tail-vein lung metastatic colonization assay, bioluminescence imaging; format: in vivo
Procedure: After 8 hours, the transfection media was replaced with fresh media. After 48 hours, 1×10^5 cells were injected intravenously into NOD-SCID mice to assess lung metastatic colonization or through intracardiac injection into athymic nude mice to assess systemic metastasis. For cell invasion and endothelial recruitment in vitro assays, the cells were used 96 hours post-transfection.
Melanoma cells used for in vivo metastasis assays were transduced with a stably expressed retroviral construct encoding a luciferase reporter gene (Ponomarev et al., 2004), allowing us to monitor the in vivo progression of melanoma cells by bioluminescence imaging. The following numbers of melanoma cells, resuspended in 100 μL, of PBS, were injected intravenously via the tail-vein: 4×10^4 MeWo cells, 2.5×10^5 HT-144 cells, 2×10^5 SK-Mel-334.2 cells, 5×10^4B16F10 cells, and 1×10^5 YUMM cells. The MeWo, HT-144, and SK-Mel-334.2 cells were injected into 6-8 week-old sex-matched NOD scid mice, while the B16F10 and YUMM cells were injected into 6-8 week-old sex-matched C57BL/6 mice. In all experiments assessing at the effects of GW3965 on metastasis formation, mice were pre-treated on a control diet or a GW3965-supplemented diet (20 mg/kg) for 10 days. To assess the effect of GW3965 treatment on brain metastasis, 1×10^5 MeWo brain-metastatic derivatives were injected intracardially into athymic nude mice. Immediately following injection, mice were randomly assigned to a control diet or GW3965-supplemented diet (100 mg/kg). To determine whether oral delivery of GW3965 can inhibit the progression of incipient metastasis, NOD Scid mice were intravenously injected with 4×10^4 MeWo cells and the cells were allowed to colonize the lungs for 42 days, after which mice were blindedly assigned to a control diet or a GW3965-supplemented diet (100 mg/kg) treatment.

[3] = system: Tyr::CreER; B-RafV600E/+; Ptenlox/+ and Ptenlox/lox mice; test: Genetically-initiated model of melanoma progression; format: in vivo, mouse
Procedure: The Tyr::CreER; B-Raf^V600E/+, Pten^lox/+/Tyr::CreER; B-Raf^V600E/+, Pten^lox/lox conditional model of melanoma progression was previously established and characterized by Dankort et al. (2009). Briefly, melanoma in these mice was induced at 6 weeks of age by intraperitoneally injecting 4-HT (H6278, 70% isomer, Sigma-Aldrich, St Louis, Mo.) at 25 mg/kg administered in peanut oil on three consecutive days. The 4-HT stock solution was prepared by dissolving it in 100% EtOH at 50 mg/mL by heating at 45° C. for 5 min and mixing. Once dissolved, the stock 4-HT solution was then diluted by 10-fold in peanut oil, yielding a 5 mg/mL 4-HT working solution that was then injected into mice. After the first 4-HT injection, mice were blindedly assigned to receive either a control diet or a diet supplemented with GW3965 (100 mg/kg). Mice were examined three times a week for the presence and progression of melanoma lesions. At day 35, dorsal skin samples were harvested from control-treated and GW3965-treated mice, fixed in 4% PFA and photographed at 10×. The percentage of pigmented melanoma lesion area out of the total skin area was quantified using ImageJ. For survival analyses, mice were monitored daily for melanoma progression and euthanized according to a standard body condition score, taking into account initial signs of moribund state and discomfort associated with the progression of melanoma burden. Post-mortem, the lungs, brains, and salivary glands were harvested and examined for the presence of macroscopic melanoma lesions.

LXRβ = molecular target: T1, LXRβ (Homo sapiens, UniProt P55055); settings: LiSA, unit inferred; cited from earlier work
T1 sequence (P55055 184-460 limits assumed): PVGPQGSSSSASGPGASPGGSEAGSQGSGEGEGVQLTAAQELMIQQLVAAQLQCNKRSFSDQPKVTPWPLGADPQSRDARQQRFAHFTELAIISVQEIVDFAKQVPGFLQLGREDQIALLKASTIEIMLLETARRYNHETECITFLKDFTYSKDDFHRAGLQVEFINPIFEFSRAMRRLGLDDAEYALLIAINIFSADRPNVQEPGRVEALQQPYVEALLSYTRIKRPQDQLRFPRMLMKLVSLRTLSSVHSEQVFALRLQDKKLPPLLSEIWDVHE
T1 sequence (Q15788 676-700 partner limits assumed): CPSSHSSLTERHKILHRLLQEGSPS

[4] = system: LXR signaling in the brain; settings: cited from earlier work

Compound	activity of luciferase reporter with ApoE promoter fused to ME.1 or ME.2 [1]	reduction in metastatic colonization capacity ([2]; MeWo cells pre-treated at 1 μM for 48 hours before injection)	reduction in lung metastatic colonization ([2]; MeWo cells, oral in chow 20 mg/kg from 10 days before injection)	survival times following metastatic colonization ([2]; MeWo, chow 20 mg/kg)	suppression of colonization by incipient lung metastases ([2]; MeWo, diet 100 mg/kg from d42)	number of macroscopic metastatic nodules formed ([2]; MeWo, diet 100 mg/kg from d42, lungs at d77)	metastatic colonization by HT-144 and SK-Mel-334.2 ([2]; oral in diet)	in vivo melanoma metastasis (lung, bioluminescence) ([2]; parental MeWo cells, chow diet 20 mg/kg)	overall survival times ([3]; Ptenlox/+ and Ptenlox/lox mice, diet 100 mg/kg)	number of lymphatic metastases detected post-mortem ([3]; Ptenlox/lox mice, salivary gland lymph nodes, 100 mg/kg)	tumor progression ([3]; diet 100 mg/kg after melanoma initiation)	EC50 (LXRβ)	blood brain barrier crossing ([4]; in vivo)	amyloid plaque pathology and memory deficits in pre-clinical models of Alzheimer's disease ([4]; oral delivery)	suppression of metastatic colonization ([2]; MeWo-LM2 cells pre-incubated 24 hours at 100 μg/mL before injection, NOD-SCID mice)
O=C(O)Cc1cccc(OCCCN(Cc2cccc(C(F)(F)F)c2Cl)CC(c2ccccc2)c2ccccc2)c1 [GW3965 2, 3-[3-[N-(2-Chloro-3-trifluoromethylbenzyl)-(2,2-diphenylethyl)amino]propyloxy]phenylacetic acid hydrochloride]	enhance	more than 50 fold	31 fold	significantly prolonged	28 fold	decreased	suppressed	significant reduction	significantly extended	decrease	attenuated	30 nM	can efficiently cross the blood brain barrier	improve amyloid plaque pathology and memory deficits	
O=S(=O)(c1ccccc1)N(CC(F)(F)F)c1ccc(C(O)(C(F)(F)F)C(F)(F)F)cc1 [T0901317 1]	enhance														
recombinant human ApoE3: recombinant human ApoE3 (4696, BioVision)															over 300 fold
